Tests used:
[1] = test system: transcription-promoting activity via the glucocorticoid receptor (A549/MMTV-LTR cells); format: cell-based; conditions: at a concentration of 300 nmol/L; relative to dexamethasone
Protocol: A pGL4.14 plasmid (Promega, product number: AY864928) having a cloned MMTV-LTR fragment upstream of the luciferase gene (−200 to +100 relative to the transcription initiation site) was introduced into A549 cells, and the obtained strain which is constitutively resistant to a selective antibiotic hygromycin B (A549/MMTV-LTR) was used for evaluation. The A549/MMTV-LTR cells were transferred to a 96-well plate (25000 cells/well) and were cultured overnight. […] Next, 20 μL of the test compound diluted to 5-fold of the desired concentration with F-12 medium or 20 μL of 4 μmol/L dexamethasone was added thereto, and the mixture was incubated under 5% CO2 at 37° C. for 6 hours. To each well, 50 μL of a luminescence reagent (Promega, product number: E2550 or E2650) was added, and the mixture was stirred to dissolve the cells, and the luciferase activity was measured by a plate reader (PerkinElmer, TopCount).
MMTV activity (%)=100×(luminescence amount in the presence of the compound−luminescence amount in the absence of the compound)/(luminescence amount in the presence of dexamethasone−luminescence amount in the absence of the compound)

[2] = molecular target: T1, recombinant human glucocorticoid receptor (Homo sapiens, UniProt P04150); assay: Human glucocorticoid receptor assay (2) (fluorescence polarization, Test Example 5); format: binding; conditions: for selectivity for human glucocorticoid receptor over progesterone receptor: from the results of Test Examples 5 and 6
T1 construct: purchased Panvera/Invitrogen P2812 (kit P2893)
T1 sequence (P04150 1-777): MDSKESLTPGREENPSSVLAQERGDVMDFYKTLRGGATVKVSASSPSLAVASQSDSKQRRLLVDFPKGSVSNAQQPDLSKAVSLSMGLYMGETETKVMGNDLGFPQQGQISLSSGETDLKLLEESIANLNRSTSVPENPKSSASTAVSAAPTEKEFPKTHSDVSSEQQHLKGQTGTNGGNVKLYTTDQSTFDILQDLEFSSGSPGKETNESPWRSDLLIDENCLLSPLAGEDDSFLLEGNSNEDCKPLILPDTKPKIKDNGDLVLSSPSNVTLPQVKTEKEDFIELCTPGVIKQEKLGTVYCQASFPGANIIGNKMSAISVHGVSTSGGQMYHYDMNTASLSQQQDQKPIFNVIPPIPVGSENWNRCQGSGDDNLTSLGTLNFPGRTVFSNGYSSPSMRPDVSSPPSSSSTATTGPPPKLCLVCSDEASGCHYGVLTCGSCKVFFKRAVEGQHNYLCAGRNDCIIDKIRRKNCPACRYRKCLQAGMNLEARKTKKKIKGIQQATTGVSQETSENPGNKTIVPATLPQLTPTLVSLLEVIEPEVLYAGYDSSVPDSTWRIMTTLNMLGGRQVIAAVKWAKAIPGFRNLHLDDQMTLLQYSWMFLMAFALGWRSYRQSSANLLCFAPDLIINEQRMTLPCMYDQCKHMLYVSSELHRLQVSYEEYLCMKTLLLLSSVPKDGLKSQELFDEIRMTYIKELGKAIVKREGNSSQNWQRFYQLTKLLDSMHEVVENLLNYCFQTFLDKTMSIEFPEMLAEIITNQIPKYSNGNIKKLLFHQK
Protocol: In this assay, a fluorescence polarization assay kit (Panvera/Invitrogen, product number: P2893) was used. The recombinant human glucocorticoid receptor (product number: P2812), the Fluoromore (trademark)-labeled dexamethasone (GS Green, product number: P2813), the stabilizing peptide solution (product number: P2815), and the basic buffer solution (product number: P2814) which were used in the assay kit had been stored at −80° C. until used. A buffer solution for the assay was prepared by adding the basic buffer solution (10 fold dilution), the stabilizing peptide solution (10 fold dilution), and 1 mol/L DTT (dithiothreitol) (1000 fold dilution to give a final concentration of 1 mmol/L).
The assay was performed as follows. The test compound was diluted to 2-fold of the desired concentration with the buffer solution for the assay, and 16 μL of that was added to each well. Next, the Fluoromore (trademark)-labeled dexamethasone was diluted with the buffer solution for the assay so as to be 4 nmol/L, and 8 μL of that was added to each well. Further, the recombinant human glucocorticoid receptor was diluted with the buffer solution for the assay so as to be 16 nmol/L, and 8 μL of that was added to each well. After stirring the mixture, the mixture was incubated under a light-shielded condition at room temperature for 2 hours or more. The fluorescence polarization value of each well was measured using a plate reader (PerkinElmer, Fusion or Envision). To a negative control group, the compound was not added. To a positive control group, dexamethasone was added so as to give a final concentration of 1 μmol/L. The glucocorticoid receptor binding inhibitory rate (%) was calculated by the following formula.
Glucocorticoid receptor binding inhibitory rate (%)=100×[1−(fluorescence polarization value of test compound solution−fluorescence polarization value of positive control solution)/(fluorescence polarization value of negative control solution−fluorescence polarization value of positive control solution)]

[3] = test system: IL-1β induced IL-6 production (A549 cells); assay: Inhibition assay for IL-1β induced IL-6 production in A549 cells (Test Example 3); format: cell-based, human; conditions: Homo sapiens, at a concentration of 100 nmol/L, IL-1β stimulation, relative to dexamethasone, read-out: IL-6 production inhibitory activity
Protocol: A549 cells cultured in F-12 medium supplemented with 10% bovine serum for 3 to 5 days were transferred to a 96-well plate (50000 cells/well) and then were cultured overnight. […] After the medium was removed by suction, 60 μL of F-12 medium was added to each well, and 20 μL of the test compound diluted to 5-fold of the desired concentration with F-12 medium or 20 μL of 4 μmol/L dexamethasone was added thereto. The test compound and the dexamethasone used here were prepared beforehand by dissolving in dimethyl sulfoxide (DMSO) and diluting with F-12 medium so that the final concentration of DMSO became 0.1% v/v or lower. After 30-minute incubation under 5% CO2 atmosphere at 37° C., 20 μL of 4 nmol/L IL-1β diluted with F-12 medium was added to each well, and then incubation was performed under a 5% CO2 atmosphere at 37° C. for 12 to 18 hours. The 96-well plate was centrifuged at 300×g at 4° C. for 5 minutes, and then the culture supernatant was collected for use as a sample for IL-6 measurement. The IL-6 produced in the culture supernatant was quantified by the ELISA method (R&D Systems, product number: DY206, DouSet ELISA Development System Human IL-6), and the production inhibition rate was calculated by the following formula. […]

## CC/C(=C1\c2cc3cnn(C(C)C)c3cc2COc2ccccc21)c1cccc(NS(C)(=O)=O)c1 [Compound 8, (Z)-5-{1-[3-(methanesulfonamide)phenyl]propylidene}-1-isopropyl-5,11-dihydro-1H-indazolo[5,6-e]benzo[b]oxepin]
[1]
  MMTV activity: 22%

## CC/C(=C1\c2cc3cnn(C(C)C)c3cc2COc2ncccc21)c1cccc(NS(C)(=O)=O)c1 [Compound 25, (Z)-1-isopropyl-5-{1-[3-(methanesulfonamide)phenyl]propylidene}-5,11-dihydro-1H-indazolo[5,6-e]pyrido-[2,3-b]oxepin]
[2]
  selectivity for human glucocorticoid receptor over progesterone receptor: selective binding activity to human glucocorticoid receptors

## C[C@@H]1C[C@H]2[C@@H]3CCC4=CC(=O)C=C[C@]4(C)[C@@]3(F)[C@@H](O)C[C@]2(C)[C@@]1(O)C(=O)CO [dexamethasone, reference compound]
[1]
  MMTV activity: ≥ 100%

## C[C@]12C=CC(=O)C=C1CC[C@@H]1[C@@H]2[C@@H](O)C[C@@]2(C)[C@H]1CC[C@]2(O)C(=O)CO [prednisolone, reference compound]
[1]
  MMTV activity: ≥ 80%

## CC/C(=C1\c2cc3cnn(C4CC4)c3cc2COc2ncccc21)c1cccc(NS(C)(=O)=O)c1 [Compound 34, (Z)-1-cyclopropyl-5-{1-[3-(methanesulfonamide)phenyl]propylidene}-5,11-dihydro-1H-indazolo[5,6-e]pyrido[2,3-b]oxepin]
[2]
  selectivity for human glucocorticoid receptor over progesterone receptor: selective binding activity to human glucocorticoid receptors
[1]
  MMTV activity: 25%

## CC/C(C(=O)Nc1nccs1)=C1\c2cc3cnn(-c4ccc(F)cc4)c3cc2COc2ccccc21 [Compound 89, (Z)-1-(4-fluorophenyl)-5-{1-[(thiazole-2-yl)aminocarbonyl]propylidene}-5,11-dihydro-1H-indazolo[5,6-e]benzo[b]oxepin]
[3]
  inhibition at 0.1 µM: ≥ 80%
[2]; at a concentration of 100 nmol/L, read-out: glucocorticoid receptor binding inhibitory activity
  inhibition at 0.1 µM: ≥ 80%

## CC/C(=C1\c2cc3cnn(-c4ccc(F)cc4)c3cc2COc2ncccc21)c1cccc(NS(C)(=O)=O)c1 [Compound 43, (Z)-1-(4-fluorophenyl)-5-{1-[3-(methanesulfonamide)phenyl]-propylidene}-5,11-dihydro-1H-indazolo[5,6-e]pyrido[2,3-b]oxepin]
[2]
  selectivity for human glucocorticoid receptor over progesterone receptor: selective binding activity to human glucocorticoid receptors

From patent US20110112299A1, “TETRACYCLIC COMPOUND” (KYOWA HAKKO KIRIN CO., LTD., priority 2008, published 2011)
